Measurements reported in patent publication US20250179126A1, “A NOVEL PEPTIDE FROM A PHOTOSYNTHETIC BACERIUM DIRECTLY TARGETS MITOCHONDRIA TO TRIGGER APOPTOSIS IN ADVANCED PROSTATE CANCER CELLS” (priority 2022, published 2025).

Key:
[1] = test system: DU145 prostate cancer cells; assay: MTT cell viability assay, DU145 prostate cancer cells; assay type: cell-based, human; conditions: DU145 (p53-mutant, AR−), 24-72 hr, paclitaxel 1 nM
Source text: Cell viability was detected by MTT assays, and the control (PBS-treated) cells were considered 100% viable. Mean±SE (N=3). *P<0.05, **P<0.01, ***P<0.001.
(§1) Cell lines and culture: Human cancer and noncancer (immortalized and nonimmortalized) cell lines were obtained from the American Type Culture Collection [prostate cancer (PC3, DU145 and LNCaP), normal prostate (CRL11611), breast cancer (MCF-7), ovarian cancer (SK-OV3 adenocarcinoma), lung cancer (A549)]. MDD2 breast cancer cells (p53 dominant-negative) were provided courtesy of Dr Andrei V. Gudkov, Roswell Park Cancer Institute. 20 All cell lines were cultured in MEM-E (Invitrogen) supplemented with 10% heat-inactivated fetal bovine serum (Atlanta Biological, Inc.), 100 units/mL penicillin, and 100 μg/mL streptomycin at 37° C. in 5% CO2.

[2] = test system: LNCaP prostate cancer cells; assay: MTT cell viability assay, LNCaP prostate cancer cells; assay type: cell-based, human; conditions: LNCaP (p53 wild-type, AR+), 24-72 hr; paclitaxel 1 nM
Procedure: as §1

[3] = test system: PC3 prostate cancer cells; assay: MTT cell viability assay, PC3 prostate cancer cells; assay type: cell-based, human; conditions: PC3 (p53-null, AR−), 24-72 hr, paclitaxel 1 nM
Procedure: as §1

[4] = test system: normal prostate cells CRL11611; assay: MTT cell viability assay, normal prostate CRL11611 cells; assay type: cell-based, human; conditions: normal prostate CRL11611 (p53+, AR+), 24-72 hr, paclitaxel 1 nM
Source text: FIG. 4A-4D: Effect of peptides on prostate cancer cell lines with differences in p53 and AR expression status. […] Control (PBS)-treated cells were considered to have 100% viability. Mean±SE (N=3).
as §1
Cytotoxicity assay: The MTT assay was performed as we previously described (Cha et al., Cancer Research 2020, 80: 1615-1623).

[5] = test system: LNCaP cells; assay: Annexin-V apoptosis assay by flow cytometry, LNCaP; assay type: cell-based, human; conditions: 48 hr, Ptxl 1 nM, p28 50 μM, aurA/aurB 0.5-50 μM
Procedure: (§2) FIG. 7A-7D: Determination of apoptotic cell death. Prostate cancer cell lines (7A: LNCaP, 7B: DU145 and 7C: PC3) and normal prostate CRL11611 cells (7D) were exposed to the indicated agents for 48 hr and stained using apoptosis assay kits according to the manufacturer's instructions. The samples were analyzed by flow cytometry. Mean±SE (N=3).
(§3) After 48 hr, annexin-V apoptosis assays (Thermo Fisher Scientific) were conducted to detect apoptotic cells. At least 10,000 cells in each case were analyzed by FACS (RRC, UIC).

[6] = test system: DU145 cells; assay: Annexin-V apoptosis assay by flow cytometry, DU145; assay type: cell-based, human; conditions: DU145, 48 hr; Ptxl 1 nM, p28 50 μM, aurA/aurB 0.5-50 μM
Procedure: as §2, §3

[7] = test system: PC3 cells; assay: Annexin-V apoptosis assay by flow cytometry, PC3; assay type: cell-based, human; conditions: PC3, 48 hr; Ptxl 1 nM, p28 50 μM, aurA/aurB 0.5-50 μM
Procedure: as §2, §3

[8] = test system: normal prostate CRL11611 cells; assay: Annexin-V apoptosis assay by flow cytometry, normal prostate CRL11611; assay type: cell-based, human; conditions: normal CRL11611, 48 hr; Ptxl 1 nM, p28 50 μM, aurA/aurB 0.5-50 μM
Procedure: as §2, §3

[9] = test system: PC3 xenograft tumors; assay: PC3 xenograft animal model; assay type: in vivo, athymic mice; conditions: end of treatment, four weeks i.p.; aurB 5 mg/kg daily, Ptxl 10 mg/kg once a week
Source text: FIG. 10A-10D: Inhibition of PC3 xenograft tumor growth. 10A, When the s.c. tumors reached ˜5 mm, athymic mice were randomized into control (PBS) and i.p. treatment groups. Mean±SE (N=5). *P<0.01. […] 10C, At the end of treatment, tumors were dissected and weighed. * P<0.01. 10D, In sections of tumors from the control group, there was a marked increase in Ki-67-positive proliferating cells (stained brown and counterstained with haematoxylin, ×40), and only a few apoptotic cells were observed, as determined by TUNEL and caspase-3 (Casp-3) staining. There was an apparent sharp reduction in Ki-67-positive proliferating cells and a higher number of TUNEL-positive apoptotic cells in the aurB-treated group compared to the control group. Similarly, Casp-3 expression in aurB-treated tumors was increased markedly compared with that in untreated controls.
Xenograft animal model: Human prostate cancer cells (PC3) were injected s.c. into the right flanks of 5- to 6-week-old male athymic mice 78. When tumors reached 5 mm in diameter, animals were randomized into control and treatment groups. […] All animals were weighed twice a week. At necropsy, tumors were dissected and weighed. Statistical comparisons were performed by one-way analysis of variance (ANOVA) (control vs treatment). Tumor samples were fixed overnight in 10% buffered formalin. Fixation was followed by dehydration, clearing and infiltration. Samples were then embedded in paraffin, and 4 μm sections were cut on a microtome. Ki67 (LabVision) staining was performed on the tissue sections using a Vector Vectastain Elite ABC Kit. The TUNEL assay was performed on the sections using a Millipore Sigma ApopTag® Peroxidase In Situ Apoptosis Detection Kit.

| Compound | cytotoxic effect (MTT cell viability) [1] | cytotoxic effect (MTT cell viability) [2] | cytotoxic effect (MTT cell viability) [3] | cytotoxic effect (MTT cell viability) [4] | cytotoxic effect (MTT cell viability) ([1]; listed as Ptxl) | cytotoxic effect (MTT cell viability) ([3]; listed as Ptxl) | cytotoxic effect (MTT cell viability) ([4]; listed as Ptxl) | apoptotic cell death [5] | apoptotic cell death [6] | apoptotic cell death [7] | apoptotic cell death [8] | tumor growth inhibition vs PBS control [9] [%] |
| --- | --- | --- | --- | --- | --- | --- | --- | --- | --- | --- | --- | --- |
| CSCC[C@H](NC(=O)CNC(=O)[C@H](CC(=O)O)NC(=O)[C@@H](NC(=O)[C@@H](NC(=O)[C@@H](NC(=O)CNC(=O)[C@H](CCC(N)=O)NC(=O)[C@H](CCSC)NC(=O)[C@H](CC(=O)O)NC(=O)[C@H](C)NC(=O)[C@H](C)NC(=O)[C@@H](NC(=O)[C@H](CO)NC(=O)[C@@H](N)CC(C)C)[C@@H](C)O)C(C)C)C(C)C)[C@@H](C)O)C(=O)N[C@@H](C)C(=O)N[C@@H](CO)C(=O)NCC(=O)N[C@@H](CC(C)C)C(=O)N[C@@H](CC(=O)O)C(=O)N[C@@H](CCCCN)C(=O)N[C@@H](CC(=O)O)C(=O)N[C@@H](Cc1ccc(O)cc1)C(=O)N[C@@H](CC(C)C)C(=O)N[C@@H](CCCCN)C(=O)N1CCC[C@H]1C(=O)N[C@@H](CC(=O)O)C(=O)N[C@@H](CC(=O)O)C(=O)O [p28, LST AAD MQG VVT DGM ASG LDK DYL KPDD, reference compound] | dose-dependent effect | dose-dependent effect | but not p53-null PC3 cells | but not p53-null PC3 cells or normal CRL11611 cells | – | – | – | – | – | – | – | – |
| CC(=O)O[C@H]1C(=O)[C@@]2(C)[C@H]([C@H](OC(=O)c3ccccc3)[C@]3(O)C[C@H](OC(=O)[C@H](O)[C@@H](NC(=O)c4ccccc4)c4ccccc4)C(C)=C1C3(C)C)[C@]1(OC(C)=O)CO[C@@H]1C[C@@H]2O [paclitaxel, reference compound] | significantly induced time-dependent cytotoxicity | significantly induced time-dependent cytotoxicity | significantly induced time-dependent cytotoxicity | significantly induced time-dependent cytotoxicity | less susceptible | less susceptible | most toxic | induced apoptotic cell death | induced apoptotic cell death | induced apoptotic cell death | induced apoptotic cell death | 52 |
